Results as given in ChEMBL document CHEMBL5532638, “Current development of 1,2,3-triazole derived potential antimalarial scaffolds: Structure- activity relationship (SAR) and bioactive compounds” (Eur J Med Chem, 2023).

Assays:
[1] = tested on: Plasmodium falciparum; test: Antiplasmodial activity against CQ-resistant Plasmodium falciparum FCR-3/Gambia subline F-86 infected in erythrocytes assessed as parasite growth inhibition incubated for 24 hrs by [3H]-hypoxanthine incorporation assay; assay type: functional, organism-based; details: FCR-3/Gambia subline F-86, Erythrocyte
[2] = tested on: Plasmodium falciparum; test: Antiplasmodial activity against CQ-sensitive Plasmodium falciparum 3D7 assessed as parasite growth inhibition; assay type: functional, organism-based
[3] = tested on: Plasmodium falciparum; test: Antiplasmodial activity against Plasmodium falciparum infected in O+ RBCs assessed as parasite growth inhibition incubated for 36 to 40 hrs by JSB staining based analysis; assay type: functional, organism-based, RBC
[4] = tested on: Plasmodium falciparum; test: Antiplasmodial activity against CQ-resistant Plasmodium falciparum 2/K-1 infected in human O+ red blood cells assessed as parasite growth inhibition incubated for 72 hrs by Malstat assay; assay type: functional, organism-based, Red blood cell; details: 2/K-1, Erythrocyte
[5] = tested on: Plasmodium falciparum; test: Antimalarial activity against Plasmodium falciparum 3D7 assessed as parasite growth inhibition incubated for 42 hrs by [3H]-hypoxanthine incorporation assay; assay type: functional, organism-based
[6] = Cytotoxicity against human PC-3 cells incubated for 72 hrs by MTT assay; assay type: toxicity, cell-based
[7] = tested on: Plasmodium falciparum; test: Antiplasmodial activity against CQ-sensitive Plasmodium falciparum F32 Tanzania assessed as parasite growth inhibition incubated for 48 hrs; assay type: functional, organism-based, RBC; details: Erythrocyte
[8] = tested on: Plasmodium falciparum; test: Antimalarial activity against CQ-resistant Plasmodium falciparum RKL-9 field isolate at asexual stage assessed as parasite growth inhibition incubated for 22 to 36 hrs by SMI assay; assay type: functional, organism-based
[9] = tested on: Plasmodium falciparum; test: Antiplasmodial activity against CQ-resistant Plasmodium falciparum RKL-9 at trophozoite stage infected in human O+ RBCs assessed as parasite growth inhibition by SYBR Green I staining based analysis; assay type: functional, organism-based, RBC; details: RKL-9, Erythrocyte
[10] = tested on: Plasmodium falciparum; test: Antiplasmodial activity against CQ-sensitive Plasmodium falciparum 3D7 at trophozoite stage infected in human O+ RBCs assessed as parasite growth inhibition by SYBR Green I staining based analysis; assay type: functional, organism-based, RBC; details: 3D7, Erythrocyte
[11] = Plasmodium falciparum, Erythrocyte, read-out: IC50

Row | Structure (SMILES) | IC50 [5] | CC50 at 72 h [6] | other results
1 | C[C@@H]1[C@@H](n2cc(-c3cccc(Cl)c3)nn2)O[C@@H]2O[C@]3(C)CC[C@H]4[C@H](C)CC[C@@H]1[C@@]24OO3 |  |  | IC50 [1]: 2.5 nM
2 | C[C@H]1[C@H](n2nncc2-c2cccc(Cl)c2)O[C@@H]2O[C@]3(C)CC[C@H]4[C@H](C)CC[C@@H]1[C@@]24OO3 |  |  | IC50 [1]: 4.2 nM
3 | O=C(Cn1cc(-c2ccccc2)nn1)c1ccccc1 |  |  | IC50 [2]: 1290 nM
4 | O=C(Cn1cc(CSc2ccc(Br)cc2)nn1)OCc1ccc(Cl)cc1 |  |  | IC50 [3, 11]: 203 nM
5 | O=C(Cn1cc(CSc2ccc(Cl)cc2)nn1)OCc1ccc(Cl)cc1 |  |  | IC50 [3, 11]: 208 nM
6 | CCc1nnc2ccc(S(=O)(=O)N(Cc3cccc(F)c3)c3ccc(OC)cc3)cn12 |  |  | IC50 [4]: 4.98 µM
7 | COc1ccc2cc3[n+](cc2c1OCc1cn(-c2ccc(S(=O)(=O)N4CCOCC4)cc2)nn1)CCc1cc2c(cc1-3)OCO2.[Cl-] | 0.1 µg/mL | > 200 µg/mL | 
8 | COc1ccc(NS(=O)(=O)c2ccc(-n3cc(COc4c(OC)ccc5cc6[n+](cc45)CCc4cc5c(cc4-6)OCO5)nn3)cc2)cc1.[Cl-] | 0.5 µg/mL | > 200 µg/mL | 
9 | COc1ccc2cc3[n+](cc2c1OCc1cn(-c2ccc(S(=O)(=O)Nc4ccc(F)cc4)cc2)nn1)CCc1cc2c(cc1-3)OCO2.[Cl-] | 0.1 µg/mL | > 200 µg/mL | 
10 | COc1ccc2cc3[n+](cc2c1OCc1cn(-c2ccc(S(=O)(=O)Nc4ccc(Cl)cc4)cc2)nn1)CCc1cc2c(cc1-3)OCO2 |  | > 200 µg/mL | 
11 | COc1ccc2cc3[n+](cc2c1OCc1cn(-c2ccc(S(=O)(=O)N4CCN(C)CC4)cc2)nn1)CCc1cc2c(cc1-3)OCO2.[Cl-] | 0.1 µg/mL | > 200 µg/mL | 
12 | COc1ccc2cc3[n+](cc2c1OCc1cn(-c2ccc(S(=O)(=O)N4CCCCC4)cc2)nn1)CCc1cc2c(cc1-3)OCO2.[Cl-] | 0.1 µg/mL | > 200 µg/mL | 
13 | COc1ccc2cc3[n+](cc2c1OCc1cn(-c2ccc(S(N)(=O)=O)cc2)nn1)CCc1cc2c(cc1-3)OCO2.[Cl-] | 0.1 µg/mL | > 200 µg/mL | 
14 | COc1ccc2cc3[n+](cc2c1OCc1cn(-c2ccc(S(=O)(=O)Nc4ccccc4)cc2)nn1)CCc1cc2c(cc1-3)OCO2.[Cl-] | 0.2 µg/mL | > 200 µg/mL | 
15 | COc1ccc2cc3[n+](cc2c1OCc1cn(-c2ccc(S(=O)(=O)Nc4ccc(Br)cc4)cc2)nn1)CCc1cc2c(cc1-3)OCO2.[Cl-] | 0.1 µg/mL | > 200 µg/mL | 
16 | O=C1C=C(OCc2cn(-c3ccccc3)nn2)C(=O)c2ccccc21 |  |  | IC50 [7]: 1200 nM
17 | COc1ccc(-n2cc(COC3=CC(=O)c4ccccc4C3=O)nn2)cc1F |  |  | IC50 [7]: 800 nM
18 | O=C(Cn1cc(COc2ccc(Cl)cc2)nn1)NCCNc1ccnc2cc(Cl)ccc12 |  |  | IC50 [8]: < 100 nM
19 | O=C(Cn1cc(COc2ccccc2)nn1)NCCCNc1ccnc2cc(Cl)ccc12 |  |  | IC50 [8]: 75 nM
20 | COc1ccccc1C(=O)/C=C/c1cn(Cc2cn(-c3ccnc4cc(Cl)ccc34)nn2)c2ccccc12 |  |  | IC50 [9]: 3.5 µM; IC50 [10]: 2400 nM
21 | Cc1ccccc1C(=O)/C=C/c1cn(Cc2cn(-c3ccnc4cc(Cl)ccc34)nn2)c2ccccc12 |  |  | IC50 [9]: 2.7 µM; IC50 [10]: 1800 nM
22 | O=C(Cn1cc(CSc2ccc(Br)cc2)nn1)OCc1ccc([N+](=O)[O-])cc1 |  |  | IC50 [3, 11]: 183 nM
23 | Cc1ccccc1COc1ccc(-n2cc(COc3cc(=O)oc4ccccc34)nn2)cc1 |  |  | IC50 ([3]; rbc): 0.53 microg/cm3
24 | O=c1ccc2ccc(OCc3cn(-c4ccc(OCc5ccc(F)cc5)cc4)nn3)cc2o1 |  |  | IC50 ([3]; rbc): 0.49 microg/cm3
25 | COc1ccc2cc3[n+](cc2c1OCc1cn(-c2ccc(S(=O)(=O)Nc4ccc([N+](=O)[O-])cc4)cc2)nn1)CCc1cc2c(cc1-3)OCO2.Cl | 0.1 µg/mL | > 200 µg/mL | 
26 | COc1ccc2cc3[n+](cc2c1OCc1cn(-c2ccc(S(=O)(=O)N4CCN(c5ccccn5)CC4)cc2)nn1)CCc1cc2c(cc1-3)OCO2.[Cl-] | 0.1 µg/mL | > 200 µg/mL | 
27 | O=c1ccc2ccc(OCc3cn(-c4ccc(OCc5ccc(Br)cc5)cc4)nn3)cc2o1 |  |  | IC50 ([3]; rbc): 0.54 microg/cm3
28 | Cc1ccc(COc2ccc(-n3cc(COc4ccc5ccc(=O)oc5c4)nn3)cc2)cc1 |  |  | IC50 ([3]; rbc): 0.38 microg/cm3
